From patent US12302928B2, “Application of acylated derivative of amino acid in preparation of animal feed additive” (ANIPHA TECHNOLOGIES PTY LTD, priority 2018, dated 2025)
Read-outs that look alike come from different tables or passages of the source.

Assays:
Assay type in all cases: in vivo
[1] = tested on: Duroc×Landrace×Yorkshire cross-bred bacon-type pigs; assay: Breeding test B1: effect on the production performance of pigs; conditions: 400 ppm in basal daily ration, 28 days; for ADFI (average daily feed intake) / ADG (average daily gain): 65-day-old pigs; for FCR (feed conversion ratio): ADFI/ADG
Description: 270 65-day-old Duroc×Landrace×Yorkshire cross-bred bacon-type pigs with similar body weight were randomly divided into 9 groups, with 3 replications per group and 10 pigs (half of male and female) per replication. The pigpens and utensils were sterilized before the test. During the test period, the test pigs were free-stall housed in the same pigpen under the same feeding and management conditions. During the test period, the test pigs were free to drink water and eat feed, and test pigs were fed twice a day. The test groups were the control group (group I) and the test groups II˜IX, respectively. Wherein the basal daily ration was only given for the control group, and 400 ppm of different acylated derivative of the aminobutyric acid was added into the basal daily ration for the test groups II˜IX.
No other antioxidant ingredients and growth promoters were added for the test groups during the entire feeding process. The test period was 28 days, with each repetition as a unit, the test pigs were weighed at the age of 93 days without stopping water and feed for 12 hours; the average daily feed intake (ADFI, g/d*each pig), the average daily gain (ADG, g/d*each pig) and the feed conversion ratio (FCR) were calculated for each of the test groups. The formula for calculation was as follows: Average daily feed intake=(total amount of feed−remaining amount of feed)/(number of days of test×number of pigs per repetition); Average daily gain=(average body weight at the end of the test−average body weight at the beginning of the test)/number of days of test; Feed conversion ratio=average daily feed intake/average daily gain.

[2] = tested on: yellow-feathered broilers; assay: Breeding test B3: effect on the production performance of broilers; conditions: 300 ppm in basal daily ration, 20 days; for ADFI (average daily feed intake): 1-day-old broilers; for FCR (feed conversion ratio): ADFI/ADG
Description: The test adopted a single-factor random design. 1,080 1-day-old yellow-feathered broilers with similar body weight and the average weight of 50 g were selected and randomly divided into 9 groups, with 6 replications per group and 20 yellow-feathered broilers (half of male and female) per replication. The poultry houses and utensils were sterilized before the test. During the test period, the yellow-feathered broilers were housed in the same poultry house under the same feeding and management conditions. The basal daily ration was mainly corn-soybean meal, and no other antioxidant components and growth promoters were added additionally during the entire feeding process. The test groups were the control group (group I) and the test groups II˜IX, respectively. The basal daily ration was only given for the control group, and 300 ppm of different acylated derivatives of the aminobutyric acid were added into the basal daily ration for the test groups II˜IX.
The test period was 20 days. The test broilers were free to drink water and eat feed, and were fed twice a day. With each repetition as a unit, the test broilers were weighed at the age of 21 days (stopping feed for 12 hours, without stopping water), the feed consumption of test broilers were recorded, and the average daily feed intake (ADFI, g/d*each broiler), the average daily gain (ADG, g/d*each broiler) and feed conversion ratio (FCR) were calculated for each of the test groups. The formula for calculation was as follows: Feed conversion ratio (FCR)=average daily feed intake/average daily gain.

grass carps = assay: Breeding test B4: use in fish feed (growth of grass carps); conditions: for change in vivo at 150 ppm, 150 µg/mL: po, 1344 h, read-out: Weight gain rate
Procedure: The test fishes used were grass carps, and the test was carried out in the aquaculture farm of the test field of Guangzhou Insighter. Healthy, lively, and uniform grass carp fingerlings were fed in large cages for 4 weeks before being used for formal breeding test. The experimental system was a small floating cage. Both the small cage and the temporary cage were placed in a 3500 m^2 pond of the test field, the depth of the pond was about 1.5 m, and the water of the pond was fully aerated in the bottom of the pond. During the test, 360 grass carps that were hungry for 1 day were randomly divided into 9 groups, with 4 replications per group and 10 grass carps per replication. All of the grass carps were weighed, and then were randomly placed in 36 cages and fed with different test feeds. The test feeds were self-prepared, and 150 ppm of different acylated derivatives of the aminobutyric acid were added into the basal feed for different test groups, respectively. The test groups were the control group (group I) and the test groups IIIX, respectively. The basal daily ration was only given for the control group, and 150 ppm of different acylated derivatives of the aminobutyric acid were added into the basal daily ration for the test groups IIIX.
The test adopted time-limited artificial feeding, and the feeding amount was adjusted once a week. The feeding rate of the control group and the feeding rate of the test groups (according to the initial body weight) were exactly the same, and the grass carps were fed twice a day (7:30 and 15:00). The test period was 8 weeks.

Jingbai laying hens = assay: Breeding test B2: effect on the production performance of laying hens; conditions: 150 ppm in basal daily ration, 158 days; for EPR (egg production rate): 147-day-old laying hens
Description: The test adopted a single-factor random design. 1,080 147-day-old Jingbai laying hens with similar body weight were selected and randomly divided into 9 groups, with 6 replications per group and 20 Jingbai laying hens per replication. The poultry houses and utensils were sterilized before the test. During the test period, the Jingbai laying hens were cage cultured in the same poultry house under the same feeding and management conditions. The basal daily ration was mainly corn-soybean meal, and no other antioxidant ingredients and growth promoters were added additionally during the entire feeding process. The test groups were the control group (group I) and the test groups II˜IX, respectively. The basal daily ration was only given for the control group, and 150 ppm of different acylated derivatives of the aminobutyric acid were added into the basal daily ration for the test groups II˜IX. The pre-feeding period was 10 days, and the test period was 158 days. The test laying hens were free to drink water and eat feed, and were fed twice a day. The test takes each repetition as a unit, and records the total egg number, the egg production, and the feed intake every day, and calculates the egg production rate (EPR), the average daily feed intake (ADFI, g/d), the egg weight (EW, g) and the feed-to-egg ratio (FER) of the laying hens during the entire test. The formula for calculation was as follows: Egg production rate (%)=average daily total egg number/number of laying hens×100; Egg weight (g)=average daily total egg weight/average daily total egg number; Feed-to-egg ratio=average daily feed intake/egg weight.

Row | Compound | ADFI (average daily feed intake) [1] | ADG (average daily gain) [1] | FCR (feed conversion ratio) [1] | ADG (average daily gain) [2] | ADFI (average daily feed intake) [2] | FCR (feed conversion ratio) [2] | (FCR) (grass carps; 150 ppm in basal feed, 8 weeks) | Average final weight (grass carps; 150 ppm in basal feed, 8 weeks) | change in vivo at 150 ppm, 150 µg/mL (grass carps; 150 ppm in basal feed, 8 weeks) | ADFI (average daily feed intake) (Jingbai laying hens) | EW (egg weight) (Jingbai laying hens) | EPR (egg production rate) (Jingbai laying hens) | change in vivo at 150 ppm, 150 µg/mL (grass carps)
1 | NCCCC(=O)NCCCC(=O)O [N-(γ-aminobutyryl)-γ-aminobutyric acid] | 1831 g/d * each pig | 693 g/d * each pig | 2.642 | 14.62 g/d * each broiler | 28.94 g/d * each broiler | 1.98 | 1.80 | 707 g | 83.7% | 160 g/day | 55.24 g | 84.4% | 
2 | CC(=O)NCCCC(=O)O [N-acetyl-γ-aminobutyric acid] | 1827 g/d * each pig | 723 g/d * each pig | 2.665 | 15.15 g/d * each broiler | 31.06 g/d * each broiler | 2.05 | 1.81 | 733 g | 77.6% | 160 g/day | 55.24 g | 82.2% | 
3 | NCC(=O)NCCCC(=O)O [N-glycyl-γ-aminobutyric acid] | 1728 g/d * each pig | 651 g/d * each pig | 2.655 | 13.02 g/d * each broiler | 26.17 g/d * each broiler | 2.01 | 1.75 | 755 g |  | 161 g/day | 55.61 g | 82.9% | 78.2%
4 | Nc1ccc(C(=O)NCCCC(=O)O)cc1 [N-p-aminobenzoyl-γ-aminobutyric acid] | 1643 g/d * each pig | 632 g/d * each pig | 2.601 | 12.42 g/d * each broiler | 25.84 g/d * each broiler | 2.08 | 1.84 | 713 g | 79.2% | 161 g/day | 55.31 g | 82.6% | 
5 | O=C(O)CCCNC(=O)c1ccc(Cl)cc1 [N-p-chlorobenzoyl-γ-aminobutyric acid] | 1675 g/d * each pig | 642 g/d * each pig | 2.610 | 12.32 g/d * each broiler | 24.88 g/d * each broiler | 2.02 | 1.77 | 730 g | 81.5% | 160 g/day | 55.07 g | 81.4% | 
